# In patent US9938245B2 (THE TRUSTEES OF COLUMBIA UNIVERSITY IN THE CITY OF NEW YORK, priority 2014, dated 2018):
# Columns and labels:
# HT1080 = assay: Concentration-dependent growth inhibition (alamar blue), HT1080; format: cell-based, human; settings: 2 days
# Description: Assay plates were prepared by seeding either BJ-derived cell lines or HT-1080 cells at 1,500 cells per well concentration in 36 μL growth medium. Cells in the assay plates were treated with compounds by transferring 4 μL volume from the compound plate. The final concentration of compound was typically 30 μM to 0.9 nM in this 16-point, 2-fold dilution series. Assay plates were returned to the culture incubator and maintained for 2 days before adding alamar blue. […] Plates were incubated further for 16 hours to allow reduction of alamar blue, which results in the generation of red fluorescence. The fluorescence intensity was determined using a Victor 3 plate reader (Perkin Elmer) with a 535 nm excitation filter and a 590 nm emission filter.
# Percent growth inhibition (% GI) was calculated from the following formula using the alamar blue fluorescence intensity values. % GI=100*(1−(X−N)/(P−N)) X, cells treated with lethal compound; N, no cells—growth media only; P, no lethal compound—cells only.
# The concentration-dependent curves were generated using Prism software. Percent growth inhibition, measured using alamar blue is shown. Error bars indicate one standard deviation of triplicate data.
# The results are shown in FIG. 17 and in Table 7 below.
# BJeLR = assay: Concentration-dependent growth inhibition (alamar blue), isogenic BJ cell lines; format: cell-based, human
# system xc− = biological target: T1, system xc− (Homo sapiens, UniProt Q9UPY5); assay: Glutamate release assay (system xc− activity); settings: read-out: IC50 glutamate release; CCF-STTG1 human astrocytoma cells, 2 hour incubation
# T1 sequence (Q9UPY5 1-501): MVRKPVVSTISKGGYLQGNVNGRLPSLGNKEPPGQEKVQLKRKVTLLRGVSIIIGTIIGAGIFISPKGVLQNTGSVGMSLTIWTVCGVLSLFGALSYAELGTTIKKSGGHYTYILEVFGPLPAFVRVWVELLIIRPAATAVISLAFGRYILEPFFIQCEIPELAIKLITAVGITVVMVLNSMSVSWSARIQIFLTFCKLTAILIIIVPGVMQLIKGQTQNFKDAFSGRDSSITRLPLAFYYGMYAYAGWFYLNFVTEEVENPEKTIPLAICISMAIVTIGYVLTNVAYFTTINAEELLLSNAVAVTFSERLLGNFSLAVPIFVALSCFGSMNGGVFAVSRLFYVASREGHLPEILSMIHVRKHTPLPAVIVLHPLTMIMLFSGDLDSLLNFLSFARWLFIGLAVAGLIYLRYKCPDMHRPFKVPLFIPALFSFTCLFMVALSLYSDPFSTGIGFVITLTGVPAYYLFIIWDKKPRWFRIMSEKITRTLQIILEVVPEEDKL
# T1 sequence (P08195 1-529 partner): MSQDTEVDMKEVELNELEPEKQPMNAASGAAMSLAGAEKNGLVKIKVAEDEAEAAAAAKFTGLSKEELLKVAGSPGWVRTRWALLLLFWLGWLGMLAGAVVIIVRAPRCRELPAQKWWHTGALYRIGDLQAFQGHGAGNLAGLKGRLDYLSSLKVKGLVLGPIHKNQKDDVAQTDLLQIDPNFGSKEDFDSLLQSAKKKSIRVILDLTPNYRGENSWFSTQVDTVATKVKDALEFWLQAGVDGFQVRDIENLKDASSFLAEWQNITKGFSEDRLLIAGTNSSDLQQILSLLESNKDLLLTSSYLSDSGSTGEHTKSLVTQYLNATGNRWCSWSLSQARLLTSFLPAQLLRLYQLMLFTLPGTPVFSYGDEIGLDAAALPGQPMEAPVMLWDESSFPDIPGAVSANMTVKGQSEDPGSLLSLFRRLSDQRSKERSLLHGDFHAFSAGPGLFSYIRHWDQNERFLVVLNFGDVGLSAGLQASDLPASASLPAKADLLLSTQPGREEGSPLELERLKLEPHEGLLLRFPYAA
# HT-1080 tumor = HT-1080 tumor formation, mouse xenograft model; format: in vivo, athymic nude mice; settings: PE 40 mg/kg SC then 30 mg/kg tail vein; erastin SC
# Description: The images show representative tumors in live mice from each treatment group.
# Athymic nude mice (8 weeks, Charles River) were injected with 4 million HT-1080 cells subcutaneously (SC). […] Two days later, the SC injection was repeated. Three days later, […] of vehicle or 30 mg/kg PE were administered to the mice through a tail vein. The tail vein injection was repeated three times more, once every other day, before the final tumor size was measured in both groups.
# Instead, erastin was injected through the SC route using the same schedule as PE until the tumor size was measured.
# [1] = test system: BJeH, BJeHLT, BJeLR, and DRD; assay: RSL testing in 4 BJ-derived cell lines; format: cell-based, human
# HT-1080 cells = assay: Modulatory profiling with lethal molecules and cell death modulators; format: cell-based, human
# [2] = mouse
compound,measurement,setting,value
"CC(C)Oc1ccc(CN2CCNCC2)cc1-n1c(CN2CCN(C(=O)COc3ccc(Cl)cc3)CC2)nc2ccccc2c1=O [PE, piperazine erastin]",IC50,HT1080,1200 nM
same,Selectivity (IC50BJeH/IC50BJeLR),BJeLR,3
same,IC50,"BJeLR; 2 days, alamar blue",300 nM
same,IC50,system xc−,800 nM
same,preventing HT-1080 tumor formation,HT-1080 tumor,improved efficacy over erastinin (ERA)
same,RSL phenotype (selective lethality in oncogenic-RAS cells),[1],retained the RSL phenotype
same,form of cell death (modulatory profile),HT-1080 cells,induced a similar form of cell death as erastin
same,Half-life in liver microsomes,[2],55 min
